Columns and labels:
Assay in all cases: relative viability (nuclei count vs DMSO), 5 days (fraction); higher = more cells survive
NCI-H1993 = test system: NCI-H1993
Summary of the method: (§1)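 One day after seeding in 1536-well plates, lung cancer cell lines were dosed by pin tool. Dosing was either single-drug or a fixed anchor-drug dose plus five library-drug doses (not always all listed) in √10 steps. After 5 days, nuclei were stained in one fix-and-stain step and counted on 4× images, and relative viability is the nuclei count of treated wells over that of vehicle wells, given as the median of duplicate plates.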

NCI-H727 = test system: NCI-H727
Summary of the method: as §1

BEN = test system: BEN
Summary of the method: as §1

HOP-62 = test system: HOP-62
Summary of the method: as §1

COR-L 105 = test system: COR-L 105
Summary of the method: as §1

HARA = test system: HARA
Summary of the method: as §1

HCC-827 = test system: HCC-827
Summary of the method: as §1

HCC-44 = test system: HCC-44
Summary of the method: as §1

SK-MES-1 = test system: SK-MES-1
Summary of the method: as §1

NCI-H2009 = test system: NCI-H2009
Summary of the method: as §1

CAL-12T = test system: CAL-12T
Summary of the method: as §1

PC-3 [JPC-3] = test system: PC-3 [JPC-3]
Summary of the method: as §1

LCLC-97TM1 = test system: LCLC-97TM1
Summary of the method: as §1

NCI-H2126 = test system: NCI-H2126
Summary of the method: as §1

LU99A = test system: LU99A
Summary of the method: as §1

HCC-15 = test system: HCC-15
Summary of the method: as §1

LC-2-ad = test system: LC-2-ad
Summary of the method: as §1

NCI-H2170 = test system: NCI-H2170
Summary of the method: as §1

COR-L23 = test system: COR-L23
Summary of the method: as §1

NCI-H2087 = test system: NCI-H2087
Summary of the method: as §1

LXF-289 = test system: LXF-289
Summary of the method: as §1

PC-14 = test system: PC-14
Summary of the method: as §1

Cc1cnc(-c2cnc(NCCNc3ccc(C#N)cn3)nc2-c2ccc(Cl)cc2Cl)[nH]1 + CCNC(=O)c1noc(-c2cc(C(C)C)c(O)cc2O)c1-c1ccc(CN2CCOCC2)cc1 [Luminespib] (partner 0.01 µM)
relative viability (NCI-H1993; first compound 0.08 µM): 0.934 | relative viability (NCI-H1993; first compound 0.253 µM): 0.932 | relative viability (NCI-H1993; first compound 0.8 µM): 0.598 | relative viability (NCI-H1993; first compound 2.53 µM): 1.27 | relative viability (NCI-H727; first compound 0.08 µM): 0.272 | relative viability (NCI-H727; first compound 0.253 µM): 0.345 | relative viability (NCI-H727; first compound 0.8 µM): 0.362 | relative viability (NCI-H727; first compound 2.53 µM): 0.337 | relative viability (BEN; first compound 0.08 µM): 0.338 | relative viability (BEN; first compound 0.253 µM): 0.612 | relative viability (BEN; first compound 0.8 µM): 0.702 | relative viability (BEN; first compound 2.53 µM): 0.501 | relative viability (HOP-62; first compound 0.08 µM): 0.955 | relative viability (HOP-62; first compound 0.253 µM): 0.841 | relative viability (HOP-62; first compound 0.8 µM): 0.79 | relative viability (HOP-62; first compound 2.53 µM): 0.738 | relative viability (COR-L 105; first compound 0.08 µM): 0.846 | relative viability (COR-L 105; first compound 0.253 µM): 0.648 | relative viability (COR-L 105; first compound 0.8 µM): 0.696 | relative viability (COR-L 105; first compound 2.53 µM): 0.654 | relative viability (HARA; first compound 0.08 µM): 0.896 | relative viability (HARA; first compound 0.253 µM): 0.568 | relative viability (HARA; first compound 0.8 µM): 0.665 | relative viability (HARA; first compound 2.53 µM): 0.709 | relative viability (HCC-827; first compound 0.08 µM): 0.719 | relative viability (HCC-827; first compound 0.8 µM): 0.752 | relative viability (HCC-827; first compound 2.53 µM): 0.564 | relative viability (HCC-44; first compound 0.08 µM): 1.21 | relative viability (HCC-44; first compound 0.253 µM): 0.968 | relative viability (HCC-44; first compound 0.8 µM): 1.14 | relative viability (HCC-44; first compound 2.53 µM): 1.24 | relative viability (SK-MES-1; first compound 0.08 µM): 0.859 | relative viability (SK-MES-1; first compound 0.253 µM): 0.757 | relative viability (SK-MES-1; first compound 0.8 µM): 0.838 | relative viability (SK-MES-1; first compound 2.53 µM): 0.921 | relative viability (NCI-H2009; first compound 0.08 µM): 1.03 | relative viability (NCI-H2009; first compound 0.253 µM): 0.984 | relative viability (NCI-H2009; first compound 0.8 µM): 0.995 | relative viability (NCI-H2009; first compound 2.53 µM): 0.975 | relative viability (CAL-12T; first compound 0.08 µM): 0.932 | relative viability (CAL-12T; first compound 0.253 µM): 0.259 | relative viability (CAL-12T; first compound 0.8 µM): 0.387 | relative viability (CAL-12T; first compound 2.53 µM): 0.242 | relative viability (PC-3 [JPC-3]; first compound 0.08 µM): 0.795 | relative viability (PC-3 [JPC-3]; first compound 0.253 µM): 0.706 | relative viability (PC-3 [JPC-3]; first compound 0.8 µM): 0.675 | relative viability (PC-3 [JPC-3]; first compound 2.53 µM): 0.661 | relative viability (LCLC-97TM1; first compound 0.08 µM): 0.748 | relative viability (LCLC-97TM1; first compound 0.8 µM): 0.959 | relative viability (LCLC-97TM1; first compound 2.53 µM): 0.787 | relative viability (NCI-H2126; first compound 0.08 µM): 1.11 | relative viability (NCI-H2126; first compound 0.253 µM): 0.861 | relative viability (NCI-H2126; first compound 0.8 µM): 0.966 | relative viability (NCI-H2126; first compound 2.53 µM): 0.903 | relative viability (LU99A; first compound 0.08 µM): 0.243 | relative viability (LU99A; first compound 0.253 µM): 0.382 | relative viability (LU99A; first compound 0.8 µM): 0.261 | relative viability (LU99A; first compound 2.53 µM): 0.234 | relative viability (HCC-15; first compound 0.08 µM): 0.303 | relative viability (HCC-15; first compound 0.253 µM): 0.217 | relative viability (HCC-15; first compound 0.8 µM): 0.318 | relative viability (HCC-15; first compound 2.53 µM): 0.398 | relative viability (LC-2-ad; first compound 0.08 µM): 0.956 | relative viability (LC-2-ad; first compound 0.253 µM): 0.683 | relative viability (LC-2-ad; first compound 2.53 µM): 0.963 | relative viability (NCI-H2170; first compound 0.08 µM): 0.984 | relative viability (NCI-H2170; first compound 0.253 µM): 0.593 | relative viability (NCI-H2170; first compound 0.8 µM): 0.667 | relative viability (NCI-H2170; first compound 2.53 µM): 0.655 | relative viability (COR-L23; first compound 0.08 µM): 0.784 | relative viability (COR-L23; first compound 0.253 µM): 0.578 | relative viability (COR-L23; first compound 0.8 µM): 0.659 | relative viability (COR-L23; first compound 2.53 µM): 0.621 | relative viability (NCI-H2087; first compound 0.08 µM): 0.128 | relative viability (NCI-H2087; first compound 0.253 µM): 0.128 | relative viability (NCI-H2087; first compound 0.8 µM): 0.208 | relative viability (NCI-H2087; first compound 2.53 µM): 0.175 | relative viability (LXF-289; first compound 0.08 µM): 0.695 | relative viability (LXF-289; first compound 0.253 µM): 0.605 | relative viability (LXF-289; first compound 0.8 µM): 0.726 | relative viability (LXF-289; first compound 2.53 µM): 0.665 | relative viability (PC-14; first compound 0.08 µM): 0.151 | relative viability (PC-14; first compound 0.253 µM): 0.24 | relative viability (PC-14; first compound 0.8 µM): 0.107 | relative viability (PC-14; first compound 2.53 µM): 0.18

From the supplement of paper PMC10307832
